Source: US10413517B2, “Composition and method for the treatment of neurological diseases and cerebral injury” (UNIVERSITY OF NOTRE DAME DU LAC, priority 2014, dated 2019)

Key:
Npc1^nmf164 mice = experiment: Survival of drug treated NPC mice (Kaplan-Meier); assay type: in vivo, mouse; settings: for median life span: males and females combined, weekly i.p., Vo 50 mg/Kg in PEG, 2×HPBCD 4000 mg/Kg, TCF (Vo 50 mg/Kg+HPBCD 2000 mg/Kg+PEG); for effect on animal survival: i.p. once weekly from day 21
Excerpt: The present study, inter alia, evaluated the efficacy of Vorinostat (Vo) an HDACi for the treatment of Niemann-Pick Type C disease in a mouse model. […] We hypothesized poor solubility, reduced plasma exposure and penetration across the Blood Brain Barrier (BBB) of Vo to be the possible reasons behind its ineffectiveness in the animals. To overcome these limitations, we used HPBCD as an excipient and made a formulation that contained Vo, HPBCD and polyethylene glycol (PEG) and named it Triple combination Formulation (TCF). The effect of TCF was evaluated using different molecular, biochemical, histological and neurobehavioral measures in NPC mice at indicated ages. For survival and neurobehavioral testing 8-10 mice were used in groups injected with drug. At least 6 mice were used in vehicle treated group. End point for survival studies were set at ≥30% weight loss. For molecular, biochemical, histological analyses at least 3-4 mice were used with at least two technical replicates in each assay. Animals were randomly assigned to treatment groups. Equal numbers of males and females were included in each group. Two independent PK experiments in mice were done each containing 5 mice in a group. The reliability and robustness of neurobehavioral scoring system was evaluated by two blinded investigators. Investigators were blinded to the drug injections while assessing the neurobehavioral functions. Determination of Vo in plasma samples were done by blinded investigators at the Metabolite Profiling Facility, Purdue University, IN, USA. Sample sizes were chosen based on previous experience or similar studies conducted by others. All data points were used in the statistical analyses.
Npc1^nmf164, BALB/c strain carrying an aspartate to glycine mutation at position 1005 (D1005G) in Npc1 gene was used as NPC disease model. (Maue, R. A., et al., Hum Mol Genet 21: 730-750 (2012)).When animals were sick and unable to reach the food provided on the holder, regular food (2019 Teklad diet, Harlan Laboratories, Indianapolis, Ind.) was replaced with DietGel 76A (Clear H2O, Portland, Me.). Studies with mice were performed with approval and authorization from the Institutional Animal Care and Use Committee of University of Notre Dame, Indiana, USA.
Vorinostat (50 mg/Kg)—Vorinostat was first dissolved in DMSO (100 mg/ml) and then diluted with 9 volume of Polyethylene Glycol 400 (PEG). This drug solution was named as ‘solution A’. Solution A was diluted with equal volume of water where the final concentration of each component was as follows; Vorinostat, 5 mg/ml; DMSO, 5% and PEG, 45%. Mice were given weekly intraperitoneal (i.p) injections starting at 21 days. Vorinostat (100 mg/Kg)—Vorinostat was first dissolved in DMSO (200 mg/ml) and then mixed with 9 volumes of PEG. Rest of the methods and injections plan were as described above. HPBCD (4000 mg/Kg)—40% HPBCD solution prepared in water. Mice were given weekly i.p injections starting at 7 days. HPBCD (2000 mg/Kg)—20% HPBCD solution prepared in water. Mice were given weekly i.p injections starting at 7 days. TCF (Vorinostat, 50 mg/Kg+HPBCD, 2000 mg/Kg, DMSO, 5%+PEG, 45%)—To prepare the formulation, the ‘solution A’ was first prepared as described above and equal volume of 40% HPBCD solution was slowly layered on top of it. The solution was gently mixed for 10 min at RT on rocker set at medium speed. The final concentration of each component in the formulation was as follows; Vorinsotat, 5 mg/ml; DMSO 5%; PEG, 45%; and HPBCD, 20%. Mice were given two i.p doses of HPBCD (2000 mg/Kg) at 7 and 15 days. Starting from 21 days mice were given weekly i.p injection of TCF. Vehicle control (5% DMSO and 45% PEG)—It was made by mixing 1 volume of DMSO with 9 volume of PEG and then diluted with equal volume of water. Mice were given weekly i.p injection starting from 21 days. All drug solutions were stored at −80° C. Fresh vials of frozen stock were thawed for injection on different days. […]

macrophages in the liver = experiment: Liver macrophage labeling (anti-CTSS immunofluorescence); assay type: in vivo, mouse; settings: 100 days, Vo 50 mg/Kg, HPBCD 2000 mg/Kg, TCF
Protocol: Mice were sacrificed by asphyxiation using CO2. Harvested organs were immersed fixed in 10% neutral buffered formalin (˜4% formaldehyde) for 24 hrs at RT. The organs were subsequently stored in 70% alcohol at RT until transfer to paraffin. Paraffin-embedded tissue sections (4-5 μm) were dewaxed in xylene and alcohol. Calbindin antigen retrieval was done by pre-incubating deparaffinized samples with 0.05% proteinase K (Dako, Germany) in 50 mM Tris-HCl (pH 7.5) for 8 min at RT. CTSS and NPC1 was retrieved by boiling the sections in acidic condition for 30 min. Blocking was done either with 2% goat serum (for calbindin and NPC1) or 2% rabbit serum (for cathepsin S) for 30 min at RT. Sections were incubated with anti-calbindin (1:1000, C9848, Sigma), anti-cathepsin S (20 μg/ml, M-19, Santa Cruz Biotechnology), anti-NPC1 (custom made against human NPC1 protein, 20 μg/ml) overnight at 4° C. The appropriate FITC or TRITC-conjugated secondary IgG (MP Biomedicals, Solon, Ohio, USA) antibodies were used at 1:200 dilution. Sections were subsequently washed with PBS containing DAPI (0.5 μg/ml). Vectashield (Vector laboratories) was used as mounting medium and processed for fluorescence microscopy.
Tissue sections after IFA and filipin stained fibroblasts were visualized with 40× oil-immersion objective lens (NA 1.35). Filipin stain was visualized using DAPI filter. Digital image collection were performed using an Olympus IX inverted fluorescence microscope and a Photometrix cooled CCD camera (CH350/LCCD) driven by DeltaVision software from Applied Precision (Seattle, Wash., USA). DeltaVision software (softWoRx) was used to deconvolve these images. Images are single optical sections. Images were analyzed using ImageJ software (NIH, MD, USA).

`CC(O)COC[C@H]1O[C@@H]2O[C@H]3[C@H](O)[C@@H](O)[C@@H](O[C@H]4[C@H](O)[C@@H](O)[C@@H](O[C@H]5[C@H](O)[C@@H](O)[C@@H](O[C@H]6[C@H](O)[C@@H](O)[C@@H](O[C@H]7[C@H](O)[C@@H](O)[C@@H](O[C@H]8[C@H](O)[C@@H](O)[C@@H](O[C@H]1[C@H](O)[C@H]2O)O[C@@H]8COCC(C)O)O[C@@H]7COCC(C)O)O[C@@H]6COCC(C)O)O[C@@H]5COCC(C)O)O[C@@H]4COCC(C)O)O[C@@H]3COCC(C)O` (stereo partly drawn) [HPBCD, 2-Hydroxypropyl-β-cyclodextrin] was tested, and the “increase of survival relative to vorinostat in PEG” value (Npc1^nmf164 mice; 4000 mg/Kg weekly i.p., 180 vs 134 d) was “increased survival by a third”, the median life span (Npc1^nmf164 mice) was 180 days and the “macrophages in the liver (histology)” value (macrophages in the liver) was “Foamy macrophages were barely seen”.
`O=C(CCCCCCC(=O)Nc1ccccc1)NO` [vorinostat] was tested, and the median life span (Npc1^nmf164 mice) was 134 days, the “effect on animal survival” value (Npc1^nmf164 mice; vorinostat 50 mg/Kg in PEG) was “no significant survival benefit” and the “effect on animal survival” value (Npc1^nmf164 mice; vorinostat 50 mg/Kg in PEG, listed as Vorinostat) was “no significant beneficial effect on animal survival”. The “effect on animal survival” value (Npc1^nmf164 mice; vorinostat 100 mg/Kg in PEG) was “no survival benefit”, the “macrophages in the liver (histology)” value (macrophages in the liver) was “also had effect but less so than TCF or HPBCD” and the “macrophages in the liver (histology)” value (macrophages in the liver; listed as Vo) was “reduced the clustering of macrophages”.
